Test results from ChEMBL document CHEMBL3044635, “Effect of propiconazole and difenoconazole on the control of anthracnose of chilli fruits caused by Colletotrichum capsici” (Crop Prot, 2006).
Converted amounts (≈) assume the structure as drawn.

Tests used:
[1] = test system: Colletotrichum truncatum; experiment: Fungicidal activity against Colletotrichum capsici assessed as spore germination at 5 ug/ml after 48 to 96 hr relative to control; format: functional
[2] = test system: Puccinia allii; experiment: Fungicidal activity against Puccinia allii assessed as inhibition of spore germination; format: functional
[3] = test system: Colletotrichum truncatum; experiment: Fungicidal activity against Colletotrichum capsici infected chilli plant assessed as fruit mass measured per pot at 0.1% applied as spray on day 10 post inoculation and twice every 20 days measured on day 155 post sowing in green house conditions (reference value: 85.3 to 94.5 g); format: functional
[4] = test system: Colletotrichum truncatum; experiment: Fungicidal activity against Colletotrichum capsici assessed as reduction of polygalacturonase trans-eliminase production at 1 ug/ml incubated for 10 days measured up to 120 min by Ostwald-Fenske viscometric analysis (reference value: 40.8%); format: functional; set-up: scale not given: the % may be the effect or the level left
[5] = test system: Colletotrichum truncatum; experiment: Fungicidal activity against Colletotrichum capsici infected chilli plant assessed as fruit yield measured per plot at 0.1% applied as spray on day 10 post inoculation and twice every 20 days measured on day 155 post sowing in field conditions (reference value: 8.25 to 9.3 kg); format: functional
[6] = test system: Colletotrichum truncatum; experiment: Fungicidal activity against Colletotrichum capsici infected chilli plant assessed as fruit mass measured per pot at 0.025% applied as spray on day 10 post inoculation and twice every 20 days measured on day 155 post sowing in green house conditions (reference value: 85.3 to 94.5 g); format: functional
[7] = test system: Colletotrichum truncatum; experiment: Fungicidal activity against Colletotrichum capsici infected chilli plant assessed as fruit length measured per plot at 0.1% applied as spray on day 10 post inoculation and twice every 20 days measured on day 155 post sowing in field conditions (reference value: 8 to 8.7 cm); format: functional
[8] = test system: Colletotrichum truncatum; experiment: Fungicidal activity against Colletotrichum capsici infected chilli plant assessed as fruit length at 0.1% applied as spray on day 10 post inoculation and twice every 20 days measured on day 155 post sowing in green house conditions (reference value: 6.8 to 7 cm); format: functional
[9] = test system: Colletotrichum truncatum; experiment: Fungicidal activity against Colletotrichum capsici assessed as spore germination at 50 ug/ml after 48 to 96 hr (reference value: 70.2 CFU); format: functional
[10] = test system: Colletotrichum truncatum; experiment: Fungicidal activity against Colletotrichum capsici assessed as spore germination at 10 ug/ml after 48 to 96 hr (reference value: 70.2 CFU); format: functional
[11] = test system: Colletotrichum truncatum; experiment: Fungicidal activity against Colletotrichum capsici assessed as sporulation at 0.5 ug/ml incubated 16 hr photoperiod for 20 days by haemocytometer (reference value: 0.081 x 10^6 ml'-1); format: functional
[12] = test system: Colletotrichum truncatum; experiment: Fungicidal activity against Colletotrichum capsici infected chilli plant assessed as percent disease index at 0.1% applied as spray on day 10 post inoculation and twice every 20 days measured on day 155 post sowing in green house conditions (reference value: 62.5 to 68.6%); format: functional
[13] = test system: Colletotrichum truncatum; experiment: Fungicidal activity against Colletotrichum capsici assessed as sporulation at 25 ug/ml incubated 16 hr photoperiod for 20 days by haemocytometer (reference value: 0.081 x 10^6 ml'-1); format: functional
[14] = test system: Colletotrichum truncatum; experiment: Fungicidal activity against Colletotrichum capsici assessed as sporulation at 0.1 ug/ml incubated 16 hr photoperiod for 20 days by haemocytometer (reference value: 0.081 x 10^6 ml'-1); format: functional
[15] = test system: Colletotrichum truncatum; experiment: Fungicidal activity against Colletotrichum capsici assessed as mycelial biomass at 25 ug/ml incubated 16 hr photoperiod for 20 days (reference value: 675 mg); format: functional
[16] = test system: Colletotrichum truncatum; experiment: Fungicidal activity against Colletotrichum capsici assessed as mycelial biomass at 0.5 ug/ml incubated 16 hr photoperiod for 20 days (reference value: 675 mg); format: functional
[17] = test system: Colletotrichum truncatum; experiment: Fungicidal activity against Colletotrichum capsici infected chilli plant assessed as percent disease index at 0.1% applied as spray on day 10 post inoculation and twice every 20 days measured on day 155 post sowing in field conditions (reference value: 51 to 56.5%); format: functional
[18] = test system: Colletotrichum truncatum; experiment: Fungicidal activity against Colletotrichum capsici assessed as linear growth at 50 ug/ml incubated 16 hr photoperiod for 20 days (reference value: 90 mm); format: functional
[19] = test system: Colletotrichum truncatum; experiment: Fungicidal activity against Colletotrichum capsici assessed as spore germination at 5 ug/ml after 48 to 96 hr (reference value: 70.2 CFU); format: functional
[20] = test system: Capsicum annuum; experiment: Phytotoxicity in Capsicum annuum (pepper) at 0.05% applied as spray; format: organism-based; conditions: in vivo, other

## CCCC1COC(Cn2cncn2)(c2ccc(Cl)cc2Cl)O1 (stereo not given) [PROPICONAZOLE]
[1]
  Activity: 0%
[2]
  MIC: 50 µg/mL (≈ 146 µM)
[3]
  Crop_yield: 165.6 g
[4]
  Activity: 8.5%
[5]
  Crop_yield: 17.5 kg
[6]
  Crop_yield: 112.8 g
[7]
  Activity: 10.2 cm
[8]
  Activity: 8 cm
[9]
  CFU: 0
[10]
  CFU: 0
[11]
  Activity: 1.3 ×10⁶ /ml
[12]
  PDI: 17.5%
[13]
  Activity: 0 ×10⁶ /ml
[14]
  Activity: 2.83 ×10⁶ /ml
[15]
  Activity: 0 mg
[16]
  Activity: 240 mg
[17]
  PDI: 13.5%
[18]
  Activity: 9 mm

## CC1COC(Cn2cncn2)(c2ccc(Oc3ccc(Cl)cc3)cc2Cl)O1 (stereo not given) [DIFENOCONAZOLE]
[19]
  CFU: 4.1
[4]
  Activity: 12.5%
[20]
  Activity: Non-toxic
[6]
  Crop_yield: 100.6 g
[9]
  CFU: 0
[10]
  CFU: 0
[11]
  Activity: 2.25 ×10⁶ /ml
[13]
  Activity: 0 ×10⁶ /ml
[14]
  Activity: 3.25 ×10⁶ /ml
[15]
  Activity: 0 mg
[16]
  Activity: 350 mg
[18]
  Activity: 9 mm
